From US7842695B2, “Substituted pyrazole compounds” (Merck Patent GmbH, priority 2003, dated 2010)

biological target: 5-HT2A receptors (UniProt P14842); test: in-vitro affinity to 5-HT2A receptors, [3H]ketanserine displacement (Example A1); type: binding
Excerpt: The 5-HT2A receptors are exposed both to [^3H]ketanserine (a substance known for its affinity to the receptor) and also to the test compound. The decrease in the affinity of [^3H]ketanserine to the receptor is an indication of the affinity of the test substance to the 5-HT2A receptor.

Row | Molecule | IC50 [nM]
1 | CC(C)(C)OC(=O)N1CCN(Cc2cnn(-c3ccc(-c4cccc(F)c4)cc3)c2-c2ccco2)CC1 [Example 638, tert-Butyl 4-[1-(3′-Fluorobiphenyl-4-yl)-5-furan-2-yl-1H-pyrazol-4-ylmethyl]piperazine-1-carboxylate] | 42
2 | O=C(c1ccccc1)C1CCCN(Cc2cnn(-c3ccc(-c4ccc(F)cc4)cc3)c2-c2ccco2)C1 (centres unmarked) [Example 593, 1-{1-[1-(4′-Fluorobiphenyl-4-yl)-5-furan-2-yl-1H-pyrazol-4-ylmethyl]piperidin-3-yl}-1-phenylmethanone] | 20
3 | OCCCNCc1cnn(-c2ccc(-c3ccc(F)cc3)cc2)c1-c1ccco1 [Example 668, 3-{[1-(4′-Fluorobiphenyl-4-yl)-5-furan-2-yl-1H-pyrazol-4-ylmethyl]amino}propan-1-ol] | 94
4 | Fc1ccc(-c2ccc(-n3ncc(CN4CCC(N5CCCC5)CC4)c3-c3ccoc3)cc2)cc1 [Example 692, 1-[1-(4′-Fluorobiphenyl-4-yl)-5-furan-3-yl-1H-pyrazol-4-ylmethyl]-4-pyrrolidin-1-ylpiperidine] | 260
5 | {[1-(4′-Fluorobiphenyl-4-yl)-5-furan-2-yl-1H-pyrazol-4-ylmethyl]methylamino}phenylpropan-1-ol [Example 587] | 19
6 | CN1CCC(N(C)Cc2cnn(-c3ccc(-c4ccc(F)cc4)cc3)c2-c2ccco2)C1 (centres unmarked) [Example 575, [1-(4′-Fluorobiphenyl-4-yl)-5-furan-2-yl-1H-pyrazol-4-ylmethyl]methyl-(1-methyl-3-pyrrolidinyl)amine] | 14.7
7 | Fc1ccc(-c2ccc(-n3ncc(CNC4CN5CCC4CC5)c3-c3ccco3)cc2)cc1 (centres unmarked) [Example 681, (1-Azabicyclo[2.2.2]oct-3-yl)-[1-(4′-fluorobiphenyl-4-yl)-5-furan-2-yl-1H-pyrazol-4-ylmethyl]amine] | 180
8 | CC1CCCN1Cc1cnn(-c2ccc(-c3ccc4c(c3)OCCO4)cc2)c1-c1ccco1 (centres unmarked) [Example 594, 1-[4-(2,3-Dihydrobenzo-1,4-dioxin-6-yl)phenyl]-5-furan-2-yl-4-(2-methylpyrrolidin-1-ylmethyl)-1H-pyrazole] | 21
9 | Cc1noc(C)c1-c1c(CN2CCNCC2)cnn1-c1ccc(-c2ccc(F)cc2)cc1 [Example 691, 1-[5-(3,5-Dimethylisoxazol-4-yl)-1-(4′-fluorobiphenyl-4-yl)-1H-pyrazol-4-ylmethyl]piperazine] | 250
10 | Fc1ccc(-c2ccc(-n3ncc(CNCCc4ccccn4)c3-c3ccco3)cc2)cc1 [Example 604, [1-(4′-Fluorobiphenyl-4-yl)-5-furan-2-yl-1H-pyrazol-4-ylmethyl]-(2-pyridin-2-ylethyl)amine] | 26
11 | O=C1CN(Cc2cnn(-c3ccc(-c4ccc5c(c4)OCO5)cc3)c2-c2ccco2)CCN1 [Example 693, 4-[1-(4-Benzo-1,3-dioxol-5-ylphenyl)-5-furan-2-yl-1H-pyrazol-4-ylmethyl]piperazin-2-one] | 280
12 | CN1CCN(Cc2cnn(-c3ccc(-c4ccc(F)cc4)cc3)c2-c2ccncc2)CC1 [Example 629, 1-[1-(4′-Fluorobiphenyl-4-yl)-5-pyridin-4-yl-1H-pyrazol-4-ylmethyl]-4-methylpiperazine] | 37
13 | COc1cccc(-c2c(CN3CCC(N4CCCC4)CC3)cnn2-c2ccc(-c3ccc(F)cc3)cc2)c1 [Example 698, 1-[1-(4′-Fluorobiphenyl-4-yl)-5-(3-methoxyphenyl)-1H-pyrazol-4-ylmethyl]-4-pyrrolidin-1-ylpiperidine] | 420
14 | Cc1nn(-c2ccccc2)c(C)c1CN1CCN(C(=O)[C@]2(C)CC[C@@H](C(=O)O)C2(C)C)CC1 [Example 687] | 210
15 | Fc1ccccc1-c1c(CCN2CCOCC2)cnn1-c1ccc(-c2ccccc2)cc1 [Example 632, 4-{2-[1-Biphenyl-4-yl-5-(2-fluorophenyl)-1H-pyrazol-4-yl]ethyl}morpholine] | 40
16 | CN1CCN(c2cnn(-c3ccc(-c4ccc5c(c4)OCO5)cc3)c2-c2ccccc2)CC1 [Example 565, 1-[1-(4-Benzo-1,3-dioxol-5-ylphenyl)-5-phenyl-1H-pyrazol-4-yl]-4-methylpiperazine] | 10
17 | OCCOCCNCc1cnn(-c2ccc(-c3ccc(F)cc3)cc2)c1-c1ccco1 [Example 666, 2-(2-{[1-(4′-Fluorobiphenyl-4-yl)-5-furan-2-yl-1H-pyrazol-4-ylmethyl]amino}ethoxy)ethanol] | 92
18 | NC1CCN(Cc2cnn(-c3ccc(-c4ccc5c(c4)OCO5)cc3)c2-c2ccco2)CC1 [Example 631, 1-[1-(4-Benzo-1,3-dioxol-5-ylphenyl)-5-furan-2-yl-1H-pyrazol-4-ylmethyl]piperidin-4-ylamine] | 39

More lines, in order of falling IC50, values ahead:

Row | IC50 [nM] | Molecule
19 | 350 | COc1cc2c(cc1OC)CN(Cc1cnn(-c3ccc(-c4ccc(F)cc4)cc3)c1-c1ccco1)CC2 [Example 697, 2-[1-(4′-Fluorobiphenyl-4-yl)-5-furan-2-yl-1H-pyrazol-4-ylmethyl]-6,7-dimethoxy-1,2,3,4-tetrahydroisoquinoline]
20 | 300 | COc1ccc(-c2ccc(-n3ncc(CNCc4cc5ccccc5n4C)c3-c3ccco3)cc2)cc1 [Example 695, [5-Furan-2-yl-1-(4′-methoxybiphenyl-4-yl)-1H-pyrazol-4-ylmethyl]-(1-methyl-1H-indol-2-ylmethyl)amine]
21 | 240 | Cc1noc(C)c1-c1c(CN2CCC(O)C2)cnn1-c1ccc(-c2ccc(F)cc2)cc1 (centres unmarked) [Example 690, 1-[5-(3,5-Dimethylisoxazol-4-yl)-1-(4′-fluorobiphenyl-4-yl)-1H-pyrazol-4-ylmethyl]pyrrolidin-3-ol]
22 | 200 | Fc1ccc(-c2ccc(-n3ncc(CN4CCN(C5CCCC5)CC4)c3-c3cccc(Cl)c3)cc2)cc1 [Example 686, 1-[5-(3-Chlorophenyl)-1-(4′-fluorobiphenyl-4-yl)-1H-pyrazol-4-ylmethyl]-4-cyclopentylpiperazine]
23 | 190 | Fc1ccc(-c2ccc(-n3ncc(CN4CCN(CCc5ccc(F)cc5F)CC4)c3-c3cccc(Cl)c3)cc2)cc1 [Example 683, 1-[5-(3-Chlorophenyl)-1-(4′-fluorobiphenyl-4-yl)-1H-pyrazol-4-ylmethyl]-4-[2-(2,4-difluorophenyl)ethyl]piperazine]
24 | 85 | COCCN1CCN(Cc2cnn(-c3ccc(-c4ccc(F)cc4)cc3)c2-c2ccoc2)CC1 [Example 664, 1-[1-(4′-Fluorobiphenyl-4-yl)-5-furan-3-yl-1H-pyrazol-4-ylmethyl]-4-(2-methoxyethyl)piperazine]
25 | 74 | CN1CCN(Cc2cnn(-c3ccc(-c4ccc(F)cc4)cc3)c2-n2cccc2)CC1 [Example 658, 1-[1-(4′-Fluorobiphenyl-4-yl)-5-pyrrol-1-yl-1H-pyrazol-4-ylmethyl]-4-methylpiperazine]
26 | 71 | COc1ccc(-c2ccc(-n3ncc(CNCc4cc[nH]n4)c3-c3ccco3)cc2)cc1 [Example 656, [5-Furan-2-yl-1-(4′-methoxybiphenyl-4-yl)-1H-pyrazol-4-ylmethyl]-(1H-pyrazol-3-ylmethyl)amine]
27 | 61 | CC(C)CNCc1cnn(-c2ccc(-c3ccc(F)cc3)cc2)c1-c1ccco1 [Example 654, [1-(4′-Fluorobiphenyl-4-yl)-5-furan-2-yl-1H-pyrazol-4-ylmethyl]isobutylamine]
28 | 50 | OC1CCCN(Cc2cnn(-c3ccc(-c4ccc(F)cc4)cc3)c2-c2ccco2)C1 (centres unmarked) [Example 646, 1-[1-(4′-Fluorobiphenyl-4-yl)-5-furan-2-yl-1H-pyrazol-4-ylmethyl]piperidin-3-ol]
29 | 46 | COc1ccc(-c2ccc(-n3ncc(CNCc4ccccn4)c3-c3ccco3)cc2)cc1 [Example 641, [5-Furan-2-yl-1-(4′-methoxybiphenyl-4-yl)-1H-pyrazol-4-ylmethyl]pyridin-2-ylmethylamine]
30 | 36 | CC(C)CCNCc1cnn(-c2ccc(-c3ccc(F)cc3)cc2)c1-c1ccco1 [Example 628, [1-(4′-Fluorobiphenyl-4-yl)-5-furan-2-yl-1H-pyrazol-4-ylmethyl]-(3-methylbutyl)amine]
31 | 36 | COc1cccc(-c2c(CN3CCN(C)CC3)cnn2-c2ccc(-c3ccc(F)cc3)cc2)c1 [Example 627, 1-[1-(4′-Fluorobiphenyl-4-yl)-5-(3-methoxyphenyl)-1H-pyrazol-4-ylmethyl]-4-methylpiperazine]
32 | 31 | CC(C)(C)OC(=O)NC1CCN(Cc2cnn(-c3ccc(-c4ccc5c(c4)OCO5)cc3)c2-c2ccco2)CC1 [Example 611, tert-Butyl {1-[1-(4-benzo-1,3-dioxol-5-ylphenyl)-5-furan-2-yl-1H-pyrazol-4-ylmethyl]piperidin-4-yl}carbamate]
33 | 29 | CC(C)(C)OC(=O)NC1CCN(Cc2cnn(-c3ccc(-c4cccc(F)c4)cc3)c2-c2ccco2)CC1 [Example 608, tert-Butyl {1-[1-(3′-fluorobiphenyl-4-yl)-5-furan-2-yl-1H-pyrazol-4-ylmethyl]piperidin-4-yl}carbamate]
34 | 25 | CN1CCN(Cc2cnn(-c3ccc(-c4ccccc4F)cc3)c2-c2ccco2)CC1 [Example 599, 1-[1-(2′-Fluorobiphenyl-4-yl)-5-furan-2-yl-1H-pyrazol-4-ylmethyl]-4-methylpiperazine]
35 | 24 | COc1cccc(-c2c(CN3CCC(O)C3)cnn2-c2ccc(-c3ccc(F)cc3)cc2)c1 (centres unmarked) [Example 598, 1-[1-(4′-Fluorobiphenyl-4-yl)-5-(3-methoxyphenyl)-1H-pyrazol-4-ylmethyl]pyrrolidin-3-ol]
36 | 23 | CCN(C)Cc1cnn(-c2ccc(-c3ccc(F)cc3)cc2)c1-c1c(C)noc1C [Example 597, [5-(3,5-Dimethylisoxazol-4-yl)-1-(4′-fluorobiphenyl-4-yl)-1H-pyrazol-4-ylmethyl]ethylmethylamine]
37 | 13 | CN1CCN(Cc2cnn(-c3ccc(-c4ccc(F)cc4)cc3)c2-c2c(F)cccc2F)CC1 [Example 573, 1-[5-(2,6-Difluorophenyl)-1-(4′-fluorobiphenyl-4-yl)-1H-pyrazol-4-ylmethyl]-4-methylpiperazine]
38 | 11 | Fc1ccc(-c2ccc(-n3ncc(CNC4CCCC4)c3-c3ccco3)cc2)cc1 [Example 568, Cyclopentyl-[1-(4′-fluorobiphenyl-4-yl)-5-furan-2-yl-1H-pyrazol-4-ylmethyl]amine]
